Holding throughout (test): NCI anticancer screen, dose series, 48 h
The subject of test [1] is HCT-15 colon.
For test [2], the system named is U251 CNS.
The subject of test [3] is A549 NSCLC.
The subject of test [4] is SNB-75 CNS.
Test [5] has as its system SK-MEL-5 melanoma.
The subject of test [6] is OVCAR-5 ovarian.
Test [7] deals with NCI-H226 lung.
Test [8] relates to OVCAR-4 ovarian.
The subject of test [9] is K-562 leukemia.
The test system of test [10] is SNB-19 CNS.

The text below walks through data of PubChem BioAssay (NCI).

Structures are written as SMILES.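 A five-concentration, 48-hour dose response in 96-well plates underlies each endpoint, interpolated linearly between surrounding concentrations. GI50 = concentration required for 50% inhibition of growth. TGI marks complete inhibition of growth.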 A value given as a limit tells only on which side of the number the result lay.

`N=C1/C(=C2\Nc3ccccc3S2)CC(=O)N1c1ccc(SC(F)F)cc1`: the GI50 in test [1] is 0.347 µM; in test [2] it was 2.74 µM; in test [3], 3.75 µM; in test [4], 0.17 µM; in test [5], 5.85 µM; in test [6], 8.88 µM. The GI50 in test [7] was 60.9 µM; in test [8] it was 0.969 µM; in test [9] it was 1.65 µM; in test [10], 29.1 µM. Besides, the TGI in test [1] is over 100 µM; in [2] it was 29.7 µM; in test [3] it was over 100 µM; in [4], 1.15 µM; in [5] it was over 100 µM; in [6] it was 79.4 µM. The TGI is over 100 µM in test [7], 52.2 µM in [8], over 100 µM in [9] and over 100 µM in test [10].
Consider `Cc1cn2c(/C=C3/C(=O)Nc4ccc(Cl)cc43)c(C)nc2s1`, for which the GI50 in [1] is under 0.0403 µM; in test [2] it was under 0.0235 µM; in test [3] it was 1.05 µM; in test [4] it was 16.3 µM; in test [5], 0.125 µM; in test [6], 1.91 µM. Also, the GI50 in [7] was 11 µM; in [8] it was over 39.3 µM. Further, the TGI is over 92.8 µM in [1]; 28.7 µM in test [2]; over 49.1 µM in test [3]; 29.8 µM in test [4]; 14.4 µM in test [5]; over 43.4 µM in [6]. In addition, the TGI was over 90.6 µM in test [7], over 54 µM in [8], over 100 µM in test [9] and over 42.4 µM in [10].
With `Fc1ccc(C2C3CCOc4c(ccc5ccccc45)C3=NN2c2ccccc2)cc1` (stereo not drawn), the GI50 in test [1] was 9.34 µM; in [2] it was 56.1 µM; in test [3], 48.9 µM; in test [4] it was over 78.7 µM; in [5], 71.4 µM; in [6], over 100 µM. Further, the GI50 in test [7] was 34.2 µM; in test [8], over 100 µM; in [9] it was 49 µM; in test [10], 99.2 µM. The TGI in test [1], in [2], in [3], in test [4], in test [5] and in [6] was over 100 µM each time. The TGI in [7] is 97 µM; in test [8] it was over 100 µM; in test [9], over 100 µM; in test [10] it was over 100 µM.
With `Cc1cc2c(cc1Cl)N1C(=O)NS(=O)(=O)N=C1NS2(=O)=O`, the GI50 in [1], in test [2], in [3], in test [4], in [5] and in test [6] was over 100 µM in each case. The GI50 in [7], in [8], in test [9] and in [10] was over 100 µM each time. Further, the TGI in test [1], in [2], in test [3], in test [4], in test [5] and in test [6] was over 100 µM throughout. Besides, the TGI in [7], in [8], in test [9] and in test [10] was over 100 µM throughout.
`COc1ccc2c(c1)N(CCO)C1=C(C(=O)OC1)C2c1ccc(OC)c(OC)c1` (stereo not drawn): the GI50 was 3.09 µM in test [1]; 2.97 µM in [2]; 3.86 µM in test [3]; 2.7 µM in test [4]; 2.63 µM in [5]; 5.76 µM in test [6]. For the same molecule, the GI50 in test [7] was 2.29 µM; in [8] it was 4.77 µM; in test [9], 1.26 µM; in test [10], 4.54 µM. Moreover, the TGI was over 100 µM in test [1]; over 100 µM in test [2]; over 100 µM in [3]; over 100 µM in test [4]; 15.5 µM in [5]; over 100 µM in test [6]. Moreover, the TGI in test [7] is 9.55 µM; in test [8], over 100 µM; in [9] it was over 100 µM; in [10], over 100 µM.
On to `COc1c2ccccc2c(O)c2c(=O)ccn(C)c12`, for which the GI50 in test [1] is 3.72 µM; in test [2], 2.67 µM; in test [3], 9.14 µM; in test [4], 12.9 µM; in test [5], 3.77 µM; in [6], 11.7 µM. The GI50 is 7.49 µM in test [7], 30.3 µM in [8], 7.5 µM in [9] and 7.77 µM in [10]. The TGI in [1] was 19.6 µM; in test [2], 13.4 µM; in [3], over 67.3 µM; in [4] it was over 53.9 µM; in [5], 14.4 µM; in test [6], 45 µM. Besides, the TGI in test [7] is over 49.9 µM; in test [8] it was over 92 µM; in [9], over 100 µM; in [10] it was over 100 µM.
With `OCc1ccc(N(Cc2ccc(F)cc2)CC2CCC2)cc1Cl`, the GI50 in test [1] is 11.7 µM; in [2], 5.43 µM; in test [3], 8.49 µM; in test [4], 12.4 µM; in test [5] it was 13.3 µM; in [6], 1.13 µM. The GI50 in [7] is 0.178 µM; in [8], 2.18 µM; in test [9], 6.4 µM; in [10] it was 14 µM. The TGI in [1] stood at 25 µM; in [2] it was 19.6 µM; in [3], 22.4 µM; in test [4], 25.3 µM; in test [5], 26.2 µM; in [6] it was 4.25 µM. Moreover, the TGI in test [7] is 0.525 µM; in test [8], 14.6 µM; in test [9] it was 22.7 µM; in test [10], 27.3 µM.
